Results on one compound are retold here after patent US11905264B1, “N′-(2-(5-(4-chlorophenyl)-1,3,4-oxadiazol-2-ylthio)acetoxy)-4-nitrobenzimidamide as an antimicrobial compound” (KING FAISAL UNIVERSITY, priority 2023, dated 2024).

Molecules are shown by their SMILES.

What all share (format): cell-based
For test [1], the system named is Pseudomonas aeruginosa. Kind of test: Agar plate disc-diffusion, antibacterial inhibition zone. The settings on record: Gram negative, nutrient agar, 37° C. The procedure:
(§1) The agar plate disc-diffusion method was applied. […] The discs were then placed onto the surface of agar plates (nutrient agar for bacteria and Sabouraud's dextrose agar for fungi) seeded with the test organism. Each plate contained 15 mL of the agar medium, previously seeded with 0.2 mL of the broth culture of each organism pregrown for 18 hours. The plates were incubated at 37° C. for 48 hours and 72 hours for fungi. The inhibition zones were measured in mm. Discs impregnated with DMSO were used as a control, and their inhibition zone was subtracted from the tested compound's actual inhibition zone.
On the technique in general: In agar diffusion tests the substance spreads into inoculated agar from a disc or well.

The test system of test [2] is Bacillus cereus. Described as above. Conditions: Gram positive, nutrient agar, 37° C. The procedure: as §1
For test [3], the system named is Escherichia coli. The description is as above. The settings on record: Gram negative, nutrient agar, 37° C. The procedure: as §1
The subject of test [4] is Staphylococcus aureus. The test is described as above. Conditions: Gram positive, nutrient agar, 37° C. The procedure:
as §1

In test [5] the test system is Chrysosporium keratinophilum. Put plainly: Agar plate disc-diffusion, antifungal inhibition zone. The settings on record: Sabouraud's dextrose agar, 72 hours. The procedure: as §1
The test system of test [6] is Aspergillus flavus. Described as above. Conditions: Sabouraud's dextrose agar, 72 hours. The procedure: as §1
Setting [7] is: A = concentration of comp. = 10,000 μL.
The mark [8] stands for this setting: B = concentration of comp. = 30,000 μL.
[9] abbreviates: C = concentration of comp. = 50,000 μL.

As for `N/C(=N\OC(=O)CSc1nnc(-c2ccc(Cl)cc2)o1)c1ccc([N+](=O)[O-])cc1` [Compound 3, N′-(2-(5-(4-chlorophenyl)-1,3,4-oxadiazol-2-ylthio)acetoxy)-4-nitrobenzimidamide], the “inhibition zone, Pseudomonas aeruginosa, A” value in test [1] (setting [7]) is 22 mm. Besides, in test [1] (setting [8]), the “inhibition zone, Pseudomonas aeruginosa, B” value is recorded as 26 mm. Also, the “inhibition zone, Pseudomonas aeruginosa, C” value in test [1] (setting [9]) is 40 mm. In test [2] (setting [7]), the “inhibition zone, Bacillus Cereus, A” value is recorded as 27 mm. In addition, the “inhibition zone, Bacillus Cereus, B” value in test [2] (setting [8]) was 29 mm. The “inhibition zone, Bacillus Cereus, C” value in test [2] (setting [9]) worked out at 40 mm. Besides, in test [3] (setting [7]), the “inhibition zone, Escherichia coli, A” value is 27 mm. For the same compound, in test [3] (setting [8]), the “inhibition zone, Escherichia coli, B” value was determined as 31 mm. The “inhibition zone, Escherichia coli, C” value in test [3] (setting [9]) was 50 mm. In test [4] (setting [7]), the “inhibition zone, Staphylococcus aureus, A” value was found to be 17 mm. Moreover, the “inhibition zone, Staphylococcus aureus, B” value in test [4] (setting [8]) is 20 mm. Moreover, the “inhibition zone, Staphylococcus aureus, C” value in test [4] (setting [9]) is reported as 37 mm. Also, the “inhibition zone, Chrysosporium keratinophilum, A” value in test [5] (A =) was 26 mm. Further, the “inhibition zone, Chrysosporium keratinophilum, B” value in test [5] (setting [8]) was found to be 28 mm. Also, the “inhibition zone, Chrysosporium keratinophilum, C” value in test [5] (setting [9]) was found to be 41 mm. In test [6] (setting [7]), the “inhibition zone, Aspergillus flavus, A” value was determined as 23 mm. The “inhibition zone, Aspergillus flavus, B” value in test [6] (setting [8]) is listed as 27 mm. Moreover, the “inhibition zone, Aspergillus flavus, C” value in test [6] (setting [9]) was 39 mm.
